In data set [1] the target is T1, Solute carrier organic anion transporter family member 1B1 (Homo sapiens, UniProt Q9Y6L6).
T1 sequence (Q9Y6L6 whole entry): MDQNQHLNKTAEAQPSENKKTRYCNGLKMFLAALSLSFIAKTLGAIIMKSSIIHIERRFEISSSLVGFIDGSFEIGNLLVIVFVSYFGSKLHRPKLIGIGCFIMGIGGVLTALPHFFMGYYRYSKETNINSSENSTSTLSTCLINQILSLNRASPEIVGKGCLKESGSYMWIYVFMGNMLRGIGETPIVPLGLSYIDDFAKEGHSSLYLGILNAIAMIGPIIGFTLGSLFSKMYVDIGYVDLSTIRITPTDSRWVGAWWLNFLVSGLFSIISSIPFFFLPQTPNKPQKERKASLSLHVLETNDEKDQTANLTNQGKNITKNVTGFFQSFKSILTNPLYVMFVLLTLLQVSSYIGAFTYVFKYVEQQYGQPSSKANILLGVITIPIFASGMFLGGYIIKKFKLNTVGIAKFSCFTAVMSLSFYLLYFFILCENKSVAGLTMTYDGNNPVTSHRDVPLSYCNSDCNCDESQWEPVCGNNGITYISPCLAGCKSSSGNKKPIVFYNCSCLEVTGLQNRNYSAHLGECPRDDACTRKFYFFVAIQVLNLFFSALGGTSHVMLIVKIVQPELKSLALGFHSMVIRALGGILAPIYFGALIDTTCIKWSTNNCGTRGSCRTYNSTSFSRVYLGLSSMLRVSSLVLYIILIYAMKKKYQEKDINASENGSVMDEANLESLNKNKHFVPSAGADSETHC
The following applies: chinese hamster, cho, 10 µM.

For data set [2], the target named is T2, Solute carrier organic anion transporter family member 1B3 (Homo sapiens, UniProt Q9NPD5).
T2 sequence (Q9NPD5 whole entry): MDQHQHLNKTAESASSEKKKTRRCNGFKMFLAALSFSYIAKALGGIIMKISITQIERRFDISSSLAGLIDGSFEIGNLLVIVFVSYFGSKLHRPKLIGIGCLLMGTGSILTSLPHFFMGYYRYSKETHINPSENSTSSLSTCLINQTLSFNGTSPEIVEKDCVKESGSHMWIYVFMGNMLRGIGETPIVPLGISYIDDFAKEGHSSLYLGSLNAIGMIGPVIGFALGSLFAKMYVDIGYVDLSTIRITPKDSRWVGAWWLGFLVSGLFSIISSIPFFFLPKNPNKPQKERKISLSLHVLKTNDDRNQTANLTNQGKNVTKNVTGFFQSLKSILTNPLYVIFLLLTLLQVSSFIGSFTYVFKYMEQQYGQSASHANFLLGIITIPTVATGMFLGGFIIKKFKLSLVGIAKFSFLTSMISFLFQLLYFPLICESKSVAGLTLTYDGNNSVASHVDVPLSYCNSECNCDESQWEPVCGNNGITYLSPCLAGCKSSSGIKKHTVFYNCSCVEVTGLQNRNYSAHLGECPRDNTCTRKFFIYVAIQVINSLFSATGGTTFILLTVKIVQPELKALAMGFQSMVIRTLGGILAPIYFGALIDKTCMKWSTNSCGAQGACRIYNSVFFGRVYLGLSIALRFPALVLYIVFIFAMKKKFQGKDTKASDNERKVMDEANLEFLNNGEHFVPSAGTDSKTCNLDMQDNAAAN
The following applies: chinese hamster, cho, 10 µM.

Each structure is given as a SMILES string.

Take `C=C(C)C1(O)OC(=O)C=C1OC` (configuration not stated) [PENICILLIC ACID]: the residual activity (usually the signal under treatment as a percentage of the control signal) in data set [1] is recorded as 110.4%; in data set [2], 96.2%.
Consider `c1ccc2c(Cc3c[nH]c4ccccc34)c[nH]c2c1` [ARUNDINE], for which the residual activity in data set [1] is reported as 101.6%; in data set [2] it was 110.1%.
With `COc1ccc2c(c1)OC/C(=C\c1ccc(OC)c(O)c1)C2=O` [SAPPANONE A DIMETHYL ETHER], the residual activity was 166.6% in data set [1] and 136.1% in data set [2].
The like results for `CC(=O)Oc1cccc(O)c1` [RESORCINOL MONOACETATE] were, in that order, 102.7% and 68.79%.
Turning to `COc1ccc([C@@H]2CC(=O)c3c(O)cc(O)cc3O2)cc1O` [HESPERETIN], the values for the residual activity in data set [1] and in data set [2] were 98.42% and 113.3%, respectively.
In the case of `CC(C)[C@]12O[C@H]1[C@@H]1O[C@@]13[C@@]1(C)CCC4=C(COC4=O)[C@@H]1C[C@@H]1O[C@@]13C2=O` [TRIPTONIDE], the residual activity is on record as 74.69% in data set [1] and 84.23% in data set [2].
With `CN/C(=N/CCSCc1nc[nH]c1C)NC#N` [CIMETIDINE], the residual activity was determined as 120.2% in data set [1] and 96.42% in data set [2].
As for `COc1ccc(/C=C/C(=O)Nc2ccccc2C(=O)O)cc1OC`, the residual activity in data set [1] was 55.59%; in data set [2] it was 71.26%.
On to `CCOc1nc2cccc(C(=O)OC(C)OC(=O)OC3CCCCC3)c2n1Cc1ccc(-c2ccccc2-c2nnn[nH]2)cc1` (configuration not stated) [CANDESARTAN CILEXETIL], for which the residual activity in data set [1] was 10.55%; in data set [2], 5.967%.
As for `O=C1O[C@H](CO)[C@@H](O)[C@H](O)[C@H]1O` [GLUCONOLACTONE], the residual activity in data set [1] is 81.83%; in data set [2] it was 89.12%.
With `CCCCCC(=O)Cc1cc(O)cc(O)c1C(=O)Oc1cc(CC(=O)CCCCC)c(C(=O)O)c(OC)c1` [ARTHONIOIC ACID], the residual activity in data set [1] worked out at 52.3%; in data set [2], 96.29%.
On to `O=C(O)C1CCCNC1` (configuration not stated) [NIPECOTIC ACID], for which the residual activity was found to be 91.42% in data set [1] and 103.2% in data set [2].
With `Oc1c(Cl)cc(Cl)c2cccnc12` [CHLOROXINE], the residual activity is on record as 43.47% in data set [1] and 62.22% in data set [2].
The like results for `C[C@]12CCC(=O)C=C1CC[C@@H]1[C@@H]2C(=O)C[C@@]2(C)[C@H]1CC[C@]2(O)C(=O)CO` [CORTISONE] were, in that order, 76.37% and 69.54%.
Turning to `C[C@@H]1O[C@@H](O[C@H]2[C@H](Oc3cc(O)c4c(=O)cc(-c5ccc(O)cc5)oc4c3)O[C@H](CO)[C@@H](O)[C@@H]2O)[C@H](O)[C@H](O)[C@H]1O` [RHOIFOLIN], the residual activity in data set [1] stood at 101.7%; in data set [2] it was 203.1%.
`Cc1cc(C(C)(C)C)c(O)c(C)c1CC1=NCCN1.Cl` [OXYMETAZOLINE HYDROCHLORIDE]: the figures for the residual activity in data set [1] and in data set [2] were 95.6% and 104.7%, respectively.
In the case of `CC(=O)Oc1ccc(Cl)c2cccnc12` [CHLOROACETOXYQUINOLINE], the residual activity in data set [1] is 90.22%; in data set [2], 92.5%.
Take `CSCCC(NC=O)C(=O)NC(C)C(=O)O` (configuration not stated) [N-FORMYLMETHIONYLALANINE]: the residual activity in data set [1] stood at 100.9%; in data set [2], 108.8%.
The like results for `C[C@@H]1O[C@@H](Oc2c(-c3ccc(O)c(O)c3)oc3cc(O)cc(O)c3c2=O)[C@H](O)[C@H](O)[C@H]1O` [QUERCITRIN] were, in that order, 107.2% and 114.6%.
As for `CC(=O)O[C@H]1CC[C@@]2(C)C(=CC[C@H]3[C@@H]4CC[C@H]([C@H](C)CCCC(C)C)[C@@]4(C)CC[C@@H]32)C1`, the residual activity is 89.8% in data set [1] and 102.8% in data set [2].
Regarding `Clc1ccc(Cl)cc1` [1,4-DICHLOROBENZENE], the residual activity in data set [1] is 99.98%; in data set [2] it was 96.49%.
Taken in the same sequence, the figures for `CC(=O)O[C@H]1C[C@@H](O)C(C)(C)[C@@H]2C[C@@H](OC(C)=O)[C@]3(C)[C@H](CC[C@@]4(C)[C@@H](c5ccoc5)OC(=O)[C@H]5O[C@@]534)[C@@]12C` [3-DEACETYLKHIVORIN] were 94.07% and 88.69%.
For the compound `COc1c(-c2coc3cc4c(cc3c2=O)CC(O)C(C)(C)O4)ccc2c1C=CC(C)(C)O2` (configuration not stated) [MUNDULONE], the figures for the residual activity in data set [1] and in data set [2] were 31.23% and 45.15%, respectively.
With `CC[C@H](C)[C@H](N)C(=O)N1CCC[C@H]1C(=O)N[C@H](C(=O)O)[C@@H](C)CC` [DIPROTIN A], the residual activity is 108.3% in data set [1] and 116.8% in data set [2].
`C[N+](C)(C)CCCCCC[N+](C)(C)C.[Br-].[Br-]` [HEXAMETHONIUM BROMIDE]: the figures for the residual activity in data set [1] and in data set [2] were 76.07% and 77.59%, respectively.
For the compound `O=C(O)c1cccnc1C(=O)O` [QUINOLINIC ACID], the residual activity worked out at 103.9% in data set [1] and 104.2% in data set [2].
For the compound `CC1=CC(=O)C2=C(C)C[C@H](O)[C@@H]3[C@H](OC(=O)[C@H]3C)[C@H]12` [AUSTRICINE], the residual activity in data set [1] stood at 102.6%; in data set [2] it was 86.81%.
For `O=c1c(O)cccc2c([C@H]3Oc4cc(O)cc(O)c4C[C@H]3O)cc(O)c(O)c12` [THEAFLAVANIN], the residual activity is listed as 60% in data set [1] and 85.59% in data set [2].
For `COc1cc2ccc(=O)oc2c(OC)c1OC` [FRAXIDIN METHYL ETHER], the values for the residual activity in data set [1] and in data set [2] were 92.39% and 92.79%, respectively.
On to `N[C@@H](CSCSC[C@H](N)C(=O)O)C(=O)O`, for which the residual activity is on record as 92.41% in data set [1] and 96.92% in data set [2].
As to `COc1ccc(-c2coc3cc(O)ccc3c2=O)cc1` [FORMONONETIN], the residual activity in data set [1] is 169.8%; in data set [2], 114.7%.
Turning to `COc1ccc(C(=O)/C=C/c2ccccc2)cc1` [4'-METHOXYCHALCONE], the residual activity in data set [1] was 100.4%; in data set [2], 93.51%.
With `CN1CCCN=C1COC(=O)C(O)(c1ccccc1)C1CCCCC1.Cl` (configuration not stated) [OXYPHENCYCLIMINE HYDROCHLORIDE], the figures for the residual activity in data set [1] and in data set [2] were 92.1% and 103.9%, respectively.
On to `O=C(O)CCCCC1CCSS1` (stereo not drawn) [LIPOIC ACID, ALPHA], for which the values for the residual activity in data set [1] and in data set [2] were 129.1% and 103.3%, respectively.
As to `C[C@]12CC[C@@H](OS(=O)(=O)[O-])C[C@@H]1CC[C@@H]1[C@@H]2CC[C@]2(C)C(=O)CC[C@@H]12.[Na+]`, the residual activity in data set [1] is recorded as 27.84%; in data set [2] it was 40.78%.
For `Cc1cc(=O)oc2c(O)c(O)ccc12` [4-METHYLDAPHNETIN], the residual activity in data set [1] is 61.23%; in data set [2], 78.2%.
Turning to `COc1ccc2c(c1)OC1(O)COc3cc(OC)c(OC)cc3C1=C2` (configuration not stated) [12a-HYDROXY-5-DEOXYDEHYDROMUNDUSERONE], the residual activity is given as 102.5% in data set [1] and 119.6% in data set [2].
Turning to `Nc1nc2ncc(CNc3ccc(C(=O)N[C@@H](CCC(=O)O)C(=O)O)cc3)nc2c(=O)[nH]1` [FOLIC ACID], the residual activity in data set [1] was determined as 98.4%; in data set [2], 109.7%.
For the compound `COc1ccc(-c2coc3c(O)c(OC)ccc3c2=O)cc1` [RETUSIN 7-METHYL ETHER], the residual activity in data set [1] amounted to 126.8%; in data set [2], 107.3%.
Consider `CS(=O)(=O)Nc1ccc([N+](=O)[O-])cc1Oc1ccccc1` [NIMESULIDE], for which the residual activity in data set [1] is 82.48%; in data set [2], 58.26%.
The like results for `CC1(C)O[C@@H]2C[C@H]3[C@@H]4C[C@H](F)C5=CC(=O)C=C[C@]5(C)[C@H]4[C@@H](O)C[C@]3(C)[C@]2(C(=O)CO)O1` [FLUNISOLIDE] were, in that order, 55.07% and 77.49%.

Source of the values: ChEMBL document CHEMBL3039007, “Structure-based identification of OATP1B1/3 inhibitors” (Mol Pharmacol, 2013).
